How the values were obtained:
[1] = target: T1, Bromodomain-containing protein 1 (Homo sapiens) (UniProt O95696); assay: Selectivity interaction (Human bromodomain panel (DSF assay)) EUB0000233b BRD1
T1 sequence (whole entry): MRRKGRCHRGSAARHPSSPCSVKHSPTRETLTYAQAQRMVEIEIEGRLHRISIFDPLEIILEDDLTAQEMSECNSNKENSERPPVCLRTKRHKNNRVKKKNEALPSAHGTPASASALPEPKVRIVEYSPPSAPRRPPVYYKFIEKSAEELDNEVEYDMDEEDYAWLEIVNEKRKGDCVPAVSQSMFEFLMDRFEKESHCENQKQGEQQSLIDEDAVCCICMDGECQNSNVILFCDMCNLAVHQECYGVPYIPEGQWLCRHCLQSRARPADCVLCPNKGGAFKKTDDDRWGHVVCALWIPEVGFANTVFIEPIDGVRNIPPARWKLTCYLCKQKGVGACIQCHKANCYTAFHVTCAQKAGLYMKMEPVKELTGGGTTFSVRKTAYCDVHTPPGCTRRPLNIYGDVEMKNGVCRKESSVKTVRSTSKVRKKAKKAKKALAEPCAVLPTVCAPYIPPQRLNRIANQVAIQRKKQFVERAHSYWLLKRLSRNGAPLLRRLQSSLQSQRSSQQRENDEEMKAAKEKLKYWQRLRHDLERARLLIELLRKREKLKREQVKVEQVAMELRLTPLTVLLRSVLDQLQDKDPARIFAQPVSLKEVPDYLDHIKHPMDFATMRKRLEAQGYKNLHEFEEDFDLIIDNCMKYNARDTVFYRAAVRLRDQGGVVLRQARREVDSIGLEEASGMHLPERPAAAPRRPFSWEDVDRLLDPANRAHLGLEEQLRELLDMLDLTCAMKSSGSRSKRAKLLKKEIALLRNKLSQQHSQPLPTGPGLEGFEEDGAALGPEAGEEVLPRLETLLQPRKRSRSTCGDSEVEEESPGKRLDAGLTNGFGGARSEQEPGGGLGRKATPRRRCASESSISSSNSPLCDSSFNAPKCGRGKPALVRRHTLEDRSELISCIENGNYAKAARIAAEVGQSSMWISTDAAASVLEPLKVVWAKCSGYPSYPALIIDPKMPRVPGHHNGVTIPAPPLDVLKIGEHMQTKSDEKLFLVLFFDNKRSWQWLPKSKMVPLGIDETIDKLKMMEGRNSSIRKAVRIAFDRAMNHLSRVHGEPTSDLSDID

[2] = target: T2, Interleukin-1 receptor-associated kinase 4 (Homo sapiens) (UniProt Q9NWZ3); assay: Selectivity interaction (KinomeScan (DiscoverX)) EUB0000595a IRAK4; details: at 10 µM
T2 sequence (whole entry): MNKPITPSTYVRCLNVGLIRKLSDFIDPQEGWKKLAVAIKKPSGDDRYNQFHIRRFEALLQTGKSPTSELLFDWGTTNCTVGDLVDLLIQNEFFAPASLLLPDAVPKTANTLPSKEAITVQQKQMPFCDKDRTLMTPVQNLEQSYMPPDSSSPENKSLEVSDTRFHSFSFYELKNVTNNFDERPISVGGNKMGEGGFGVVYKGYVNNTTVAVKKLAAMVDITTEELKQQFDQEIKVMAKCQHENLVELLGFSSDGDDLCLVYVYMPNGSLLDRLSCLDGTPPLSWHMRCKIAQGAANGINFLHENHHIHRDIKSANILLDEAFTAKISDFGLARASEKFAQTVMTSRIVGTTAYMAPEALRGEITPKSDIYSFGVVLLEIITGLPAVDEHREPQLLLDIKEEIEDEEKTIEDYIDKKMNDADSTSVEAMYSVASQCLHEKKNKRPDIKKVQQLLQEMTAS

[3] = target: T3, Mitogen-activated protein kinase 15 (Homo sapiens) (UniProt Q8TD08); assay: Selectivity interaction (LanthaScreen Eu Kinase Binding Assay) EUB0001632a MAPK15; details: at 10 µM
T3 sequence (whole entry): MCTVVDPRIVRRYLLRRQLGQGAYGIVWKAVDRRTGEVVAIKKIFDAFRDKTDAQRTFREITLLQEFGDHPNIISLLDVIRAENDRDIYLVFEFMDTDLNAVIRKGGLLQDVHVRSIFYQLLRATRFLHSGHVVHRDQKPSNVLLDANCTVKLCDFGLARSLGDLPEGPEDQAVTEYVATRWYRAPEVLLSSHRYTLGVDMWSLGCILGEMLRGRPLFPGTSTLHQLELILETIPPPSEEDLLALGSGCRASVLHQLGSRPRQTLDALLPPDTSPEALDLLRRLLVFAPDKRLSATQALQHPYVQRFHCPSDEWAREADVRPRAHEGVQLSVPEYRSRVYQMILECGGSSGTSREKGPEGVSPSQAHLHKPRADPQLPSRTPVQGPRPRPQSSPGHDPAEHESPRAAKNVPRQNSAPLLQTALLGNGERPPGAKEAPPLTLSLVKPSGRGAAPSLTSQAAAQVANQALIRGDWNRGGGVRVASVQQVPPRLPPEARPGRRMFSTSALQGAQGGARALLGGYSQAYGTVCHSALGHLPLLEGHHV

## CN(C)CCCOc1ccc(-c2cc(NCCCn3cccn3)nc(S(C)(=O)=O)n2)cc1
[1]
  dTM: < 2 K

## COCC(=O)NC/C=C/c1ccc2ncnc(Nc3ccc(Oc4ccc(C)nc4)c(C)c3)c2c1 [CP-724714]
[2]
  % of control: 100%

## Cn1cc(-n2cnc3c(NCc4nc5cc(Cl)c(Cl)cc5[nH]4)nc(N4CCOCC4)nc32)cn1
[3]
  % of inhibition: -42.8%

Source: ChEMBL document CHEMBL5465560, “Selectivity Literature for EUbOPEN Chemogenomic Library” (2024)
